The values below come from patent US8969565B2, “Imidazo[1,2-b]pyridazine-based compounds, compositions comprising them, and methods of their use” (Lexicon Pharmaceuticals, Inc., priority 2012, dated 2015).

Data set [1] concerns the target T1, AAK1 (Homo sapiens, UniProt Q2M2I8).
T1 construct: HA; expressed in transfected cells; host or cells: HEK293F
As to the kind of experiment: HEK281 cell-based assay (phospho-mu2 Western blot in transfected HEK293F cells). The conditions noted are these: 3 hours incubation, read-out: CBA IC50. In a few lines: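 HEK293F cells co-transfected with full-length human AAK1/HA and Flag/AP2M1 were treated next day with 5 compound concentrations (3-fold dilutions) in DMEM+0.5% FBS for 3 hours at 37° C. Lysates were Western blotted for phospho-mu2, with total mu2 detected by anti-Flag.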

The target in data set [2] is T1, AAK1. Description: P81 filter plate assay. Format: biochemical. Particulars: full-length human AAK1, Mu2 substrate.

Counter-ions that a name gives are not always drawn.

T1 sequence (Q2M2I8 1-863 isoform Q2M2I8-2): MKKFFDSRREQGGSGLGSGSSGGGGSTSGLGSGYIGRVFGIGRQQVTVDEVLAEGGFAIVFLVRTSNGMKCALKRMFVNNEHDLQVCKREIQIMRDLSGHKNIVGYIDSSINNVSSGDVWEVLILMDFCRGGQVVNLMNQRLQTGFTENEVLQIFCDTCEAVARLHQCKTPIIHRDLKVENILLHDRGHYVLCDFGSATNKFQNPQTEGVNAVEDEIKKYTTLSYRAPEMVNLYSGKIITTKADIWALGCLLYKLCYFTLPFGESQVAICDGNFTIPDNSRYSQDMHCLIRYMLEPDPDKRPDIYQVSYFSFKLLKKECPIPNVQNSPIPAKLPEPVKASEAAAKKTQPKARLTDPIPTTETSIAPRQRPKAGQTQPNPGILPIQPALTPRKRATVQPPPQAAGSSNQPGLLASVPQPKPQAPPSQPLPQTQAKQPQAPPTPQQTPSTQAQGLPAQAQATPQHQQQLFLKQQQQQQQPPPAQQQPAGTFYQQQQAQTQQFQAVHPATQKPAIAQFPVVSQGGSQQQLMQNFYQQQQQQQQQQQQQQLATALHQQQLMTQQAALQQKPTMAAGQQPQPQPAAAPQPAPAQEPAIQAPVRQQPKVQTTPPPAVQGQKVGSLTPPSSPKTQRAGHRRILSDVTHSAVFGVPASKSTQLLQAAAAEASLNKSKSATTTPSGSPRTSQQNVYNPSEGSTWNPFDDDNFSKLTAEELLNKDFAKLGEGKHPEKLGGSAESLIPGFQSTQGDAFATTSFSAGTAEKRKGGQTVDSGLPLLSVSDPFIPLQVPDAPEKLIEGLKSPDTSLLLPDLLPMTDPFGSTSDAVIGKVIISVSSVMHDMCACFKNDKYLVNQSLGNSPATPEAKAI

As to `CN(CCNc1ccc2ncc(-c3ccc(C(N)=O)cc3)n2n1)C(=O)NC(C)(C)C`, the melting point lay in the range of 154 to 155 °C.

Take `CC(C)OC(=O)N1CCN(c2ccc3ncc(-c4ccccc4)n3n2)CC1` (as salt: hydrochloride) [4-(3-Phenyl-imidazo[1,2-b]pyridazin-6-yl)-piperazine-1-carboxylic acid isopropyl ester]: the melting point is 232 to 233 °C (dec.).

`COc1cnccc1-c1cnc2ccc(N3CCN(C(=O)OC(C)C)CC3)nn12` (as salt: hydrochloride) [Example 5.6.103, 4-[3-(3-Methoxy-pyridin-4-yl)-imidazo[1,2-b]pyridazin-6-yl]-piperazine-1-carboxylic acid isopropyl ester]: the melting point was 217 to 218 °C (dec.).

In the case of `FC(F)(F)CCCNc1ccc2ncc(-c3cccc4c3OCC4)n2n1` (as salt: hydrochloride) [Example 5.6.106, [3-(2,3-Dihydro-benzofuran-7-yl)-imidazo[1,2-b]pyridazin-6-yl]-(4,4,4-trifluoro-butyl)-amine], the melting point lay in the range of 299 to 300 °C.

As for `CC(C)OC(=O)N1CCN(c2ccc3ncc(-c4ccncc4)n3n2)CC1` (as salt: hydrochloride) [Example 5.6.108, 4-(3-Pyridin-4-yl-imidazo[1,2-b]pyridazin-6-yl)-piperazine-1-carboxylic acid isopropyl ester], the melting point is 195 to 196 °C (dec.).

As for `COc1cnccc1-c1cnc2ccc(N3CCN(C(=O)CC(C)(C)C)CC3)nn12` (as salt: hydrochloride) [Example 5.6.114, 1-(4-(3-(3-Methoxypyridin-4-yl)imidazo[1,2-b]pyridazin-6-yl)piperazin-1-yl)-3,3-dimethylbutan-1-one], the melting point was 211 to 212 °C (dec.).

For `COc1ccccc1-c1cnc2ccc(N3CCN(C(=O)OC(C)C)CC3)nn12` (as salt: hydrochloride) [Example 5.6.115, 4-[3-(2-Methoxy-phenyl)-imidazo[1,2-b]pyridazin-6-yl]-piperazine-1-carboxylic acid isopropyl ester], the melting point is 243 to 244 °C (dec.).

With `CC(C)(C)C(=O)N1CCN(c2ccc3ncc(-c4ccccc4)n3n2)CC1` (as salt: hydrochloride) [Example 5.6.125, 2,2-Dimethyl-1-[4-(3-phenyl-imidazo[1,2-b]pyridazin-6-yl)-piperazin-1-yl]-propan-1-one], the melting point was 277 to 278 °C (dec.).

Consider `CC(C)OC(=O)N1CCN(c2ccc3ncc(-c4ccccc4OC(C)C)n3n2)CC1` (as salt: hydrochloride) [Example 5.6.145, 4-[3-(2-Isopropoxy-phenyl)-imidazo[1,2-b]pyridazin-6-yl]-piperazine-1-carboxylic acid isopropyl ester], for which the melting point is 216 to 217 °C (dec.).

As for `COc1ncccc1-c1cnc2ccc(N3CCN(C(=O)OC(C)C)CC3)nn12` (as salt: hydrochloride) [Example 5.6.151, 4-[3-(2-Methoxy-pyridin-3-yl)-imidazo[1,2-b]pyridazin-6-yl]-piperazine-1-carboxylic acid isopropyl ester], the melting point was 179 to 181 °C (dec.).

Turning to `CC(C)(C)NC(=O)N1CCN(c2ccc3ncc(-c4ccccc4)n3n2)CC1` (as salt: hydrochloride) [N-(tert-Butyl)-4-(3-phenylimidazo[1,2-b]pyridazin-6-yl)piperazine-1-carboxamide], the melting point was 210 to 211 °C (dec.).

With `CC(C)NC(=O)N1CCN(c2ccc3ncc(-c4ccccc4)n3n2)CC1` (as salt: hydrochloride) [N-Isopropyl-4-(3-phenylimidazo[1,2-b]pyridazin-6-yl)piperazine-1-carboxamide], the melting point was 217 to 218 °C (dec.).

As to `CC(C)SC(=O)N1CCN(c2ccc3ncc(-c4ccccc4)n3n2)CC1` (as salt: hydrochloride) [S-Isopropyl 4-(3-phenylimidazo[1,2-b]pyridazin-6-yl)piperazine-1-carbothioate], the melting point was 276 to 277 °C (dec.).

Compound `O=C(N1CCCC1)N1CCN(c2ccc3ncc(-c4ccccn4)n3n2)CC1` (as salt: hydrochloride) [[4-(3-Pyridin-2-yl-imidazo[1,2-b]pyridazin-6-yl)-piperazin-1-yl]-pyrrolidin-1-yl-methanone] displayed a melting point of 202 to 203 °C.

`CC(C)OC(=O)N1CCN(c2ccc3ncc(Br)n3n2)C(C)C1` (racemic) [Example 5.6.146, Isopropyl 4-(3-bromoimidazo[1,2-b]pyridazin-6-yl)-3-methylpiperazine-1-carboxylate] registered a melting point of 52 to 54 °C.

Regarding `CC(C)OC(=O)N1CCN(c2ccc3ncc(Br)n3n2)CC1C` (racemic) [Example 5.6.147, Isopropyl 4-(3-bromoimidazo[1,2-b]pyridazin-6-yl)-2-methylpiperazine-1-carboxylate], the melting point is 144 to 145 °C.

Compound `COc1ccccc1-c1cnc2ccc(N3C[C@H]4C[C@@H]3CN4C(=O)OC(C)C)nn12` (stereo in doubt) (as salt: hydrochloride) [Example 5.6.154, Isopropyl 5-(3-(2-methoxyphenyl)imidazo[1,2-b]pyridazin-6-yl)-2,5-diazabicyclo[2.2.1]heptane-2-carboxylate] yielded a melting point of 173 to 174 °C.

In turn, `CC(C)(C)NC(=O)N1CCN(c2ccc3ncc(Br)n3n2)CC1` [4-(3-Bromoimidazo[1,2-b]pyridazin-6-yl)-N-(tert-butyl)piperazine-1-carboxamide] came in with a melting point of 199 to 200 °C. The IC50 at AAK1 [1] is at most 100 nM. At AAK1 [2], the half-inhibitory concentration (IC50) was at most 10 nM.

With `CCCCNc1ccc2ncc(-c3ccc(-c4nnn[nH]4)cc3)n2n1` [Butyl-{3-[4-(1H-tetrazol-5-yl)-phenyl]-imidazo[1,2-b]pyridazin-6-yl}-mine], the melting point is 270 to 271 °C. For the same compound, at AAK1 [1], the IC50 was at most 1000 nM.

Compound `CC(=O)c1ccc(-c2cnc3ccc(N(C)CCCNC(=O)OC(C)(C)C)nn23)s1` [Example 5.6.27, (3-{[3-(5-Acetyl-thiophen-2-yl)-imidazo[1,2-b]pyridazin-6-yl]-methyl-amino}-propyl)-carbamic acid tert-butyl ester] registered a melting point of 148 to 149 °C.

Take `CCCCNc1ccc2ncc(-c3ccc(-c4noc(=O)[nH]4)cc3)n2n1` [Example 5.6.49, 3-[4-(6-Butylamino-imidazo[1,2-b]pyridazin-3-yl)-phenyl]-4H-[1,2,4]oxadiazol-5-one]: the melting point is 253 to 254 °C (dec.).

`CN(CCNc1ccc2ncc(Br)n2n1)C(=O)OC(C)(C)C` [Example 5.6.56, [2-(3-Bromo-imidazo[1,2-b]pyridazin-6-ylamino)-ethyl]-methyl-carbamic acid tert-butyl ester] registered a melting point of 128 to 129 °C.

As to `CC(C)N(CCNc1ccc2ncc(Br)n2n1)C(=O)OC(C)(C)C` [Example 5.6.72, [2-(3-Bromo-imidazo[1,2-b]pyridazin-6-ylamino)-ethyl]-isopropyl-carbamic acid tert-butyl ester], the melting point was in the range of 154 to 155 °C.

Compound `CC(C)OC(=O)N1CCN(c2ccc3ncc(Br)n3n2)CC1` [Example 5.6.102, 4-(3-Bromo-imidazo[1,2-b]pyridazin-6-yl)-piperazine-1-carboxylic acid isopropyl ester] showed a melting point of 123 to 124 °C.

`CC(C)(C)OC(=O)N1CCC[C@H]1CNc1ccc2ncc(I)n2n1` [Example 5.6.107, (S)-2-[(3-Iodo-imidazo[1,2-b]pyridazin-6-ylamino)-methyl]-pyrrolidine-1-carboxylic acid tert-butyl ester] gave a melting point of 138 to 139 °C.

With `COc1cnccc1-c1cnc2ccc(N3CCCN(C(=O)OC(C)(C)C)CC3)nn12` [Example 5.6.121, 4-[3-(3-Methoxy-pyridin-4-yl)-imidazo[1,2-b]pyridazin-6-yl]-[1,4]diazepane-1-carboxylic acid tert-butyl ester], the melting point lay within 115 to 116 °C.

The compound `CCCCN(C)c1ccc2ncc(-c3ccc(CN)cc3)n2n1` [[3-(4-Aminomethyl-phenyl)-imidazo[1,2-b]pyridazin-6-yl]-butyl-methyl-amine] gave a melting point of 99 to 101 °C. The IC50 at AAK1 [1] was at most 1000 nM.

`COc1ccccc1-c1cnc2ccc(N3CCC(N(C)C(=O)OC(C)(C)C)C3)nn12` (centres unmarked) [tert-butyl (1-(3-(2-methoxyphenyl)imidazo[1,2-b]pyridazin-6-yl)pyrrolidin-3-yl)(methyl)carbamate]: the concentration for half-maximal inhibition (IC50) on AAK1 [1] is at most 1000 nM; at AAK1 [2], at most 10 nM.

Take `COc1ncccc1-c1cnc2ccc(N3CCC(N(C)C(=O)OC(C)(C)C)C3)nn12` (centres unmarked) [tert-butyl (1-(3-(2-methoxypyridin-3-yl)imidazo[1,2-b]pyridazin-6-yl)pyrrolidin-3-yl)(methyl)carbamate]: the IC50 at AAK1 [1] was at most 100 nM; against AAK1 [2], at most 10 nM.

As to `CN(C(=O)OC(C)(C)C)C1CCN(c2ccc3ncc(-c4ccccc4)n3n2)C1` (centres unmarked) [tert-butyl methyl(1-(3-phenylimidazo[1,2-b]pyridazin-6-yl)pyrrolidin-3-yl)carbamate], the IC50 at AAK1 [1] and against AAK1 [2] was at most 100 nM throughout.

As for `COc1ncccc1-c1cnc2ccc(N3CC[C@H](N(C)C(=O)OC(C)(C)C)C3)nn12` [{(S)-1-[3-(2-Methoxy-pyridin-3-yl)-imidazo[1,2-b]pyridazin-6-yl]-pyrolidin-3-yl}-methyl-carbamic acid tert-butyl ester], the IC50 at AAK1 [1] is at most 100 nM; at AAK1 [2], at most 10 nM.

In the case of `COc1ncccc1-c1cnc2ccc(N3CC[C@H](N(C)C(=O)OC(C)C)C3)nn12` [{(S)-1-[3-(2-Methoxy-pyridin-3-yl)-imidazo[1,2-b]pyridazin-6-yl]-pyrrolidin-3-yl}-methyl-carbamic acid isopropyl ester], the 50% inhibitory concentration (IC50) on AAK1 [1] and against AAK1 [2] was at most 10 nM in each case.
